Target: T1, human DGAT1 (Homo sapiens, UniProt O75907)
T1 construct: made in house; host or cells: Sf9 cells (membrane preparation)
T1 sequence (O75907 1-488): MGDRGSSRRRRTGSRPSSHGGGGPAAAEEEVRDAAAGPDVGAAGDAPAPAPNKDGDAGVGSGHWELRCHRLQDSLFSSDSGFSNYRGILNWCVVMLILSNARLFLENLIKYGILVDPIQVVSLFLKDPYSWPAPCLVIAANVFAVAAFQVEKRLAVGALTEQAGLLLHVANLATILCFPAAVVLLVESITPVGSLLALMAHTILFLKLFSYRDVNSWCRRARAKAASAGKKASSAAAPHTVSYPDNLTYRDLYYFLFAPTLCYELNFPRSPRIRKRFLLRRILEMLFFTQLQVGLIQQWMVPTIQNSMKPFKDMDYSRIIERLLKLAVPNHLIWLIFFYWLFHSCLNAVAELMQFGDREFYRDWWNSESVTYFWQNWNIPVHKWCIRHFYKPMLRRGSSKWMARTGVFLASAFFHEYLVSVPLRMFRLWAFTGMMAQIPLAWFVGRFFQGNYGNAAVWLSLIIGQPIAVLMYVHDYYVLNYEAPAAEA
Assay: DGAT1 enzyme inhibition assay (membrane preparation, LC/MS/MS readout)
Type: biochemical
Settings: DGAT1 inhibitory activity, table at end of examples
Procedure: The enzyme preparation used in this assay is a membrane preparation from Sf9 cells overexpressing human (His)6DGAT1. During all steps samples were chilled to 4° C. Sf9 cells expressing human (His)6DGAT1 were thawed at RT and re-suspended at a 10:1 ratio (mL buffer/g of cells) in 50 mM HEPES, 1× Complete Protease Inhibitor, pH 7.5.
The re-suspended pellet was homogenized for 1 min using a Brinkman PT 10/35 homogenizer with a 20 mm generator. Cells were lysed using Avestin Emulsiflex (chilled to 4° C.) at 10000-15000 psi. Lysate was centrifuged at 100,000×g for 1 h at 4° C. Supernatant was removed and pellets were re-suspended in 50 mM HEPES, 1× Complete Protease Inhibitor, pH 7.5 at ⅙ the volume of supernatant. Re-suspended pellets were pooled and homogenized with 10 strokes of a Glas-Col motor driven teflon pestle on setting 70. The protein concentration of the membrane preparation was quantified using BCA protein assay with 1% SDS. The membrane preparation was aliquoted, frozen on dry ice, and stored at −80° C.
For 50 mL, 25 mL of 0.2 M HEPES stock buffer, 0.5 mL of 1 M MgCl2 ([…]), and 24.5 mL of milli-Q H2O are added to the 55 mL Wheaton Potter-Elvehjem homogenizer. Enzyme preparation (0.1 mL) is added to buffer and the mixture is homogenized with 5 strokes on ice using the Glas-Col variable speed homogenizer system on setting 70.
For 50 mL, 0.5 mL 10 mM diolein is added to 9.5 mL of EtOH in a 50 mL Falcon screw cap conical centrifuge tube. Five mL of 10 mM sodium acetate pH 4.5 is added followed by 0.5 mL of 10 mM oleoyl-CoA. Finally, the remaining 4.5 mL of 10 mM sodium acetate pH 4.5 is added followed by 30 mL of milli-Q H20. The solution should be gently agitated by hand to induce mixing. The final concentrations of EtOH and sodium acetate are 20% and 2 mM, respectively.
Dry compounds are dissolved in the appropriate volume of DMSO to a final concentration of 10 mM. A 10-point, 3-fold dose response is used to evaluate compound potency. All dilutions are performed in DMSO in a Greiner 384-well microplate.
1. 2 μL of compound in DMSO is added to the appropriate wells. 2 μL of DMSO is added to 100% activity and 100% inhibition controls.
2. 25 μL of enzyme mix is added to all wells and plate(s) are incubated for 10 min at RT.
3. 10 μL of 20% acetic acid quench is added to 100% inhibition control wells. Plate(s) are vortexed using Troemner multi-tube vortexer (setting 7 for 10 sec).
4. 25 μL of substrate mix is added to all wells. Plate(s) are vortexed using Troemner multi-tube vortexer (setting 7 for 10 sec). Plate(s) are incubated for 30 min at RT.
5. 10 μL of 20% acetic acid quench is added to all wells. Plate(s) are vortexed using Troemner multi-tube vortexer (setting 7 for 10 sec).
6. 50 μL of 1-butanol w/glyceryl tripalmitoleate internal standard is added to all wells.
7. Plate(s) are sealed with super pierce strong plate sealer using the thermo-sealer.
8. Plate(s) are vortexed using Troemner multi-tube vortexer (setting 10 for 5 min).
9. Plate(s) are centrifuged at 162×g (1000 rpm for GH-3.8 rotor) for 5 min using Beckman GS-6R tabletop centrifuge.
Samples were analyzed by LC/MS/MS using a Waters 1525 μLC and Quattro Micro API MS. Where indicated, tripalmitolein was used as an internal standard to control for instrument variation.
Data is converted to % inhibition prior to curve fitting using the following equation: […]

IC50 [µM] | SMILES
0.23 | O=C(Nc1cccc(Cl)c1)c1ccc2nc(-c3cccc(Cl)c3Cl)[nH]c2c1 [Example 1-124, 2-(2,3-Dichloro-phenyl)-3H-benzoimidazole-5-carboxylic acid (3-chloro-phenyl)-amide]
6.8 | Cc1ccccc1CNC(=O)c1ccc2nc(-c3c(Cl)cccc3Cl)oc2c1 [Example 4-15, 2-(2,6-Dichloro-phenyl)-benzooxazole-6-carboxylic acid 2-methyl-benzylamide]
12 | COC(=O)c1ccc(-c2nc3ccc(C(=O)Nc4cccc(Cl)c4)cc3[nH]2)cc1 [Example 1-136, 4-[6-(3-Chloro-phenylcarbamoyl)-1H-benzoimidazol-2-yl]-benzoic acid methyl ester]
6.9 | Cc1cccc(C(=O)Nc2ccc3nc(-c4c(Cl)cccc4Cl)[nH]c3c2)c1 [Example 1-11, N-[2-(2,6-Dichloro-phenyl)-3H-benzoimidazol-5-yl]-3-methyl-benzamide]

Same assay, conditions: inhibitory activity to human DGAT1, Table 1, values given as ranges

IC50 [µM] | SMILES
1 to 30 | CC(=O)Nc1ccc2nc(-c3c(Cl)cccc3Cl)[nH]c2c1 [Example 1-6]
< 1 | CCOc1cccc(CCNC(=O)c2ccc3nc(-c4c(Cl)cccc4Cl)[nH]c3c2)c1 [Example 1-82, 2-(2,6-Dichloro-phenyl)-3H-benzoimidazole-5-carboxylic acid [2-(3-ethoxy-phenyl)-ethyl]-amide]
30 to 100 | COc1ccccc1CCNC(=O)c1ccc2nc(-c3c(Cl)cccc3Cl)oc2c1 [Example 4-11, 2-(2,6-Dichloro-phenyl)-benzooxazole-6-carboxylic acid [2-(2-methoxy-phenyl)-ethyl]-amide]
1 to 30 | Cc1nc2cc(NC(=O)c3ccc4[nH]c(-c5c(Cl)cccc5Cl)cc4c3)ccc2s1 [Example 3-1, 2-(2,6-dichloro-phenyl)-1H-indole-5-carboxylic acid (2-methyl-benzothiazol-5-yl)-amide]

Tested on: not given
Assay: not given
Settings: not given

melting point [°C] | SMILES
223 to 225 | Cc1ccc(NC(=O)c2ccc3c(c2)C(=O)N(c2c(C)cccc2C)C3=O)cc1C [Example 7-1, 2-(2,6-Dimethylphenyl)-1,3-dioxo-2,3-dihydro-1H-isoindole-5-carboxylic acid (3,4-dimethylphenyl)-amide]
207 to 209 | Cc1ccc(NC(=O)c2ccc3oc(-c4c(C)cc(OCC(=O)N(C)C)cc4C)nc3c2)cc1C [Example 4-23, 2-(4-Dimethylcarbamoylmethoxy-2,6-dimethylphenyl)-benzooxazole-5-carboxylic acid (3,4-dimethylphenyl)-amide]
238 to 240 | Cc1ccc(NC(=O)c2ccc3c(c2)C(=O)N(c2c(Cl)cccc2Cl)C3=O)cc1C [Example 7-2, 2-(2,6-Dichlorophenyl)-1,3-dioxo-2,3-dihydro-1H-isoindole-5-carboxylic acid (3,4-dimethylphenyl)-amide]

From patent US8222248B2, “Organic compounds” (Novartis AG, priority 2006, dated 2012)
